Square brackets hold non-standard residues; d marks the D form. Ends that are not written are not given here. Met(O) = CS(=O)CC[C@H](N)C(=O)O
System: mouse ADAMTS7
Experiment: TMT10 TAILS N-terminomics, HUVEC experiment (process replicates, trypsin/AspN digest)
Assay type: cell-based, human
Conditions: HUVEC TAILS HC; log fold change of N-terminal peptide, Ad-mADAMTS7 WT over EQ
How it was run: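 Full-length mouse ADAMTS7 (WT or E373Q mutant, C-terminal 3xFLAG) or luciferase was transduced via adenovirus, 50 MOI, into HCA-SMC (SMC1, SMC2) or HUVEC. SMC1: pooled media, technical triplicates 400 ug; SMC2: process triplicates 300 ug; HUVEC: process triplicates 200 ug, bFGF2 10 ng/ml.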

Row | Substance | logFC.mWT.over.mEQ
1 | LTBP2_253 (GEGTLAR; listed as Homo sapiens) | 2.99
2 | THBS1_630 (FGQGVEHATANK; listed as Homo sapiens) | 2.28
3 | ASMT_321 (LSSAGFR; listed as Homo sapiens) | 2.56
4 | CTGF_174 (VVGPALAAYR; listed as Homo sapiens) | 2.44
5 | PSAP_301 (LVEPIKKH; listed as Homo sapiens) | 2.44
6 | ZYX_244 (PVSLANTQPR; listed as Homo sapiens) | 1.02
7 | CLU_267 (FQHPPTEFIR; listed as Homo sapiens) | 1.64
8 | BICD1_280 (NNDDKMNGHIHGPLVKLNGDYR; listed as Homo sapiens) | 1.31
9 | LTBP2_129 (QQQPAPR; listed as Homo sapiens) | 5.32
10 | PZP_578 (HAHLQVAAAPQSLCALR; listed as Homo sapiens) | 2.45
11 | LTBP3_164 (LSTGALPPLAPEG; listed as Homo sapiens) | 2.21
12 | CTGF_173 (TVVGPALAAYR; listed as Homo sapiens) | 3.39
13 | LTBP3_205 (HAAFLVPLGPGQISA; listed as Homo sapiens) | 2.54
14 | MCFD2_55 (HLEGVINKPEA; listed as Homo sapiens) | 0.99
15 | PTBP1_376 (AAAAAGR; listed as Homo sapiens) | 1.06
16 | FN1_1743 (WESPQGQVSR; listed as Homo sapiens) | 3.05
17 | FN1_1624 (LVQTAVTTIPAPT; listed as Homo sapiens) | 1.56
18 | LTBP3_221 (VQAPPPVVNVR; listed as Homo sapiens) | 3.11
19 | UQCRH_76 (HGSPNNSERAMRAVGE[Met(O)]CKGPGAAR; listed as Homo sapiens) | 1.38

Source: US20240368668A1, “SUBSTRATES AND BIOMARKERS OF ADAMTS7” (The Broad Institute, Inc., priority 2021, published 2024)
